Experimental data taken from patent publication US20250361239A1, “PROTEIN DEGRADERS AND USES THEREOF” (ZHUHAI YUFAN BIOTECHNOLOGIES CO., LTD., priority 2022, published 2025).

Experiments:
GSPT1 = target: T1, GSPT1 (Homo sapiens, UniProt P15170+Q96SW2); test: Degradation of GSPT1 by the compounds (HiBiT signal in GSPT1/HEK293 hibit cells); format: cell-based; conditions: 6 h incubation, Nano Glo HiBiT Lytic Detection
T1 construct: host or cells: HEK293
Procedure: GSPT1/HEK293 hibit cell lines were constructed by Shanghai BioDuro Co., Ltd., HEK293 cell lines were purchased from ATCC (Cat #ATCC® CRL-1573™), DMEM media were purchased from ATCC (Cat #ATCC® 30-2002™), FBS was purchased from Gibco (Cat #10091148), Nano Glo HiBiT Lytic Detection System was purchased from Promega (Cat #N3040), and 96-well plates were purchased from coming (Cat #3610).
The degradation of GSPT1 by the compounds was determined by measuring the intensity of hibit signals in cells. Firstly, the cells were digested with pancreatin, and the digestion was then terminated with medium. The cells were centrifuged, and the supernatant was discarded. The centrifuged cells were resuspended in a fresh complete medium, and the cell density was adjusted to 2.5×10^4 cells/mL. The resuspended cells were inoculated into an opaque 96-well cell culture plate at 100 μL of cell suspension per well, and the cell culture plate was incubated in a cell incubator at 37° C. overnight. The next day, dilutions (20 μL) of compounds with different concentrations were added, and the plate was incubated in a cell incubator for 6 h. After 6 h, 60 μL of Nano Glo HiBiT Lytic Detection System reagent was added and the luminescence values were read on the instrument.
According to the corresponding degradation rate and concentration of each gradient concentration well, a gradient curve of degradation rate was fitted using XLFit software, and the DC50 values of compounds were calculated.

HL60 cells = test: HL60 cell killing experiment (CellTiter-Glo cell viability); format: cell-based; conditions: CTG luminescence
Procedure: HL60 cell lines were purchased from ATCC (Cat #ATCC® CCL-240™), IMDM media were purchased from ATCC (Cat #ATCC® 30-2005™), FBS was purchased from Gibco (Cat #10091148), celltiter-glo luminescent cell viability assay was purchased from promega (Cat #G7572), and 96-well plates were purchased from corning (Cat #3610).
The effect of compounds on the growth of HL60 cells was determined by measuring cell viability. Firstly, cells in the logarithmic growth phase were collected and centrifuged, and the culture supernatant was discarded. The centrifuged cells were resuspended in a fresh complete medium, and the cell density was adjusted to 5×10^4 cells/mL. The resuspended cells were inoculated into two opaque 96-well cell culture plates at 100 μL of cell suspension per well, and the cell culture plates were incubated in a cell incubator at 37° C. for 4 h. After 4 h, dilutions (20 μL) of compounds with different concentrations were added. After one of the cell plates was cooled to room temperature, 60 μL of CTG reagent was added, and the luminescence values were read on the instrument as G0. The other one was incubated in a cell incubator for 48 h. After 48 h, 60 μL of CTG reagent was added, and the luminescence values were read on the instrument as G3.
According to the corresponding proliferation rate and concentration of each gradient concentration well, a gradient curve of cell proliferation was fitted using XLFit software, and the GI50 values of compounds were calculated.

[1] = Homo sapiens, HL-60, 48 h incubation

T1 sequence (P15170 whole entry): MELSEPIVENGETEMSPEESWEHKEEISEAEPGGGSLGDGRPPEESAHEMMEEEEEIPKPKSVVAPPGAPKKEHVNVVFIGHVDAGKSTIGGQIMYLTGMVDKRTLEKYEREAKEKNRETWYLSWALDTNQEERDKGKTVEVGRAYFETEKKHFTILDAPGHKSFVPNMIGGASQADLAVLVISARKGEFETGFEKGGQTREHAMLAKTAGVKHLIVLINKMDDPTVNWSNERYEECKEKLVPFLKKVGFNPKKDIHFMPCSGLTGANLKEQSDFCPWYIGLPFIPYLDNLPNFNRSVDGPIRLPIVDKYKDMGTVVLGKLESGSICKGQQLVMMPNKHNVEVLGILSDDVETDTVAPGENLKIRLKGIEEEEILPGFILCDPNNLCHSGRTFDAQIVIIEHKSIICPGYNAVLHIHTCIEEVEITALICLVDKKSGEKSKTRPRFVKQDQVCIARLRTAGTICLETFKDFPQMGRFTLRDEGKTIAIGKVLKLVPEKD
T1 sequence (Q96SW2 whole entry): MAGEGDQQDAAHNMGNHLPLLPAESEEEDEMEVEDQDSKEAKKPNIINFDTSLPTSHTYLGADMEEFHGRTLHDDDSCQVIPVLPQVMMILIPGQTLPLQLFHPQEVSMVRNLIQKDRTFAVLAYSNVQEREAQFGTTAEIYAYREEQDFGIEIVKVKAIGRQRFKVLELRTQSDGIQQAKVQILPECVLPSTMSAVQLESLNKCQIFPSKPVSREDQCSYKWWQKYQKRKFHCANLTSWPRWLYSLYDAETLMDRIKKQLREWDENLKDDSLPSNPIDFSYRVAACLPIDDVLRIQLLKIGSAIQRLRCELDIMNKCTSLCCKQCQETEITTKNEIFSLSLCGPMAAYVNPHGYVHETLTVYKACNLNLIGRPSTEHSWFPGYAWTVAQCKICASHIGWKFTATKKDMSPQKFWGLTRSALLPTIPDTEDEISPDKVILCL
T1 sequence (Q16531 whole entry partner): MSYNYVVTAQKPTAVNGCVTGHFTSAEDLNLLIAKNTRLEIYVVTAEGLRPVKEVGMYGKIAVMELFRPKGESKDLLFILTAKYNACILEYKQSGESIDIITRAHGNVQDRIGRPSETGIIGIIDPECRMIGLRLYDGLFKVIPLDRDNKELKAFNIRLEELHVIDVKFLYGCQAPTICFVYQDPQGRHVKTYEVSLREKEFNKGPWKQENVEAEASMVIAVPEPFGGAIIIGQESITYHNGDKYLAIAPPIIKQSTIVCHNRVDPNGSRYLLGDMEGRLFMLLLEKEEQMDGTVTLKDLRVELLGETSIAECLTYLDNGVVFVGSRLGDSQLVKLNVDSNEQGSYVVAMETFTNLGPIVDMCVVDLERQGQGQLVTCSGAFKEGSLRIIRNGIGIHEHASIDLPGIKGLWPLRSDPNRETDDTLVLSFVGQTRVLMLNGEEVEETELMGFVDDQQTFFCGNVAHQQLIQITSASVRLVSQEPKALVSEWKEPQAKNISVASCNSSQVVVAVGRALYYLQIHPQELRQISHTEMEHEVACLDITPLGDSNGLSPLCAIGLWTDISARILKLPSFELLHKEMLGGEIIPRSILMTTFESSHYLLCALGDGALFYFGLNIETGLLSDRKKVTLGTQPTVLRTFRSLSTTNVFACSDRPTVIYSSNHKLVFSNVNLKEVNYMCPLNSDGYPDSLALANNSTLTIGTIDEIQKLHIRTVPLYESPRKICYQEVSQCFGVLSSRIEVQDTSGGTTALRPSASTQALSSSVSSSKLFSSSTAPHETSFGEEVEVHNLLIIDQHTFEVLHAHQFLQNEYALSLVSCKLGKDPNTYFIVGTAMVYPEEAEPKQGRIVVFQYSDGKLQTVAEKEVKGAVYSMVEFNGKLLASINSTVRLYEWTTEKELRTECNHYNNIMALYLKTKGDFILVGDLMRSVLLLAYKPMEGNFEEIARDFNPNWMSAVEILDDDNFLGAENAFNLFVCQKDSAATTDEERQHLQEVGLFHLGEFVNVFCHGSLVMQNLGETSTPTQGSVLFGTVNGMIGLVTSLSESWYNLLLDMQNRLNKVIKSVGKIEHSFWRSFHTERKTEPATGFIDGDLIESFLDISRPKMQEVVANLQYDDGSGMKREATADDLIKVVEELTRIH

| Compound | DC50 (GSPT1) | GI50 (HL60 cells; [1]) | GI50 (HL60 cells; 48 h incubation) |
| --- | --- | --- | --- |
| O=C1CCC(N2C(=O)c3cccc(NCc4cccc(C(=O)NC5CCC(c6cc7ccncc7s6)CC5)c4)c3C2=O)C(=O)N1 (centres unmarked) [Example 50] | < 100 nM | < 100 nM |  |
| CN(C(=O)c1cc(CNc2cccc3c2C(=O)N(C2CCC(=O)NC2=O)C3=O)ccn1)[C@H]1CC[C@H](c2nc3cccnc3s2)CC1 (some centres unmarked) [Example 79] | < 100 nM | < 100 nM |  |
| O=C1CCC(N2C(=O)c3cccc(NCc4cccc(C(=O)NC5CCC(c6cc7ccccc7s6)CC5)c4)c3C2=O)C(=O)N1 (centres unmarked) [Example 44] | < 100 nM | < 100 nM |  |
| O=C1CCC(N2C(=O)c3cccc(NCc4cccc(C(=O)NC5CCC(c6cc7ccccc7o6)CC5)c4)c3C2=O)C(=O)N1 (centres unmarked) [Example 12] | < 100 nM | < 100 nM |  |
| Cn1c(C2CCC(NC(=O)c3cccc(CNc4cccc5c4C(=O)N(C4CCC(=O)NC4=O)C5=O)c3)CC2)nc2c3cc[nH]c3ncc21 (centres unmarked) [Example 100] | < 100 nM | < 100 nM |  |
| Cn1c(C2CCC(NC(=O)CCCCNc3cccc4c3C(=O)N(C3CCC(=O)NC3=O)C4=O)CC2)nc2c3c(C4CCCCC4)c[nH]c3ncc21 (centres unmarked) [Example 110] | < 100 nM | < 100 nM |  |
| O=C1CCC(N2C(=O)c3cccc(NCCCCC(=O)NC4CCC(c5nc6ccncc6[nH]5)CC4)c3C2=O)C(=O)N1 (centres unmarked) [Example 6] | < 100 nM | < 100 nM |  |
| COc1ccc(CNc2cccc3c2C(=O)N(C2CCC(=O)NC2=O)C3=O)cc1C(=O)N[C@H]1CC[C@H](c2nc3ccncc3s2)CC1 (some centres unmarked) [Example 99] | < 100 nM | < 100 nM |  |
| O=C1CCC(N2C(=O)c3cccc(NCCCCC(=O)NC4CCC(c5nc6c(cnc7[nH]ccc76)[nH]5)CC4)c3C2=O)C(=O)N1 (centres unmarked) [Example 29] | < 100 nM | < 100 nM |  |
| O=C1CCC(N2C(=O)c3cccc(NCCCCC(=O)NC4CCC(c5nc6c(cnc7[nH]cc(C8CCOCC8)c76)[nH]5)CC4)c3C2=O)C(=O)N1 (centres unmarked) [Example 109] | < 100 nM | < 100 nM |  |
| CCCn1c(C2CCC(NC(=O)c3cccc(CNc4cccc5c4C(=O)N(C4CCC(=O)NC4=O)C5=O)c3)CC2)nc2cccnc21 (centres unmarked) [Example 84] | < 100 nM | < 100 nM |  |
| CCn1c(C2CCC(NC(=O)c3cccc(CNc4cccc5c4C(=O)N(C4CCC(=O)NC4=O)C5=O)c3)CC2)nc2ccncc21 (centres unmarked) [Example 71] | < 100 nM | < 100 nM |  |
| O=C1CCC(N2C(=O)c3cccc(NCc4cccc(C(=O)NC5CCC(c6nc7cccnc7s6)CC5)c4)c3C2=O)C(=O)N1 (centres unmarked) [Example 57] | < 100 nM | < 100 nM |  |
| Cn1c2cc(N)ccc2nc1[C@H]1CC[C@H](NC(=O)c2cc(CNc3cccc4c3C(=O)N(C3CCC(=O)NC3=O)C4=O)ccn2)CC1 (some centres unmarked) [Example 130] | < 100 nM | < 100 nM |  |
| O=C1CCC(N2C(=O)c3cccc(NCc4ccc5cn([C@H]6CC[C@H](c7nc8cccnc8s7)CC6)nc5c4)c3C2=O)C(=O)N1 (some centres unmarked) [Example 38] | < 100 nM | < 100 nM |  |
| O=C1CCC(N2C(=O)c3cccc(NCc4ccnc(C(=O)NC5CCC(c6nc7ccccc7o6)CC5)c4)c3C2=O)C(=O)N1 (centres unmarked) [Example 22] | < 100 nM | < 100 nM |  |
| O=C1CCC(N2C(=O)c3cccc(NCc4cccc(C(=O)NC5CCC(c6nc7ccncc7n6C6COC6)CC5)c4)c3C2=O)C(=O)N1 (centres unmarked) [Example 101] | < 100 nM | < 100 nM |  |

The next lines start with results.

| DC50 (GSPT1) | Compound | GI50 (HL60 cells; [1]) | GI50 (HL60 cells; 48 h incubation) |
| --- | --- | --- | --- |
| < 100 nM | Cn1c(C2CCC(NC(=O)c3cccc(CNc4cccc5c4C(=O)N(C4CCC(=O)NC4=O)C5=O)n3)CC2)nc2ccncc21 (centres unmarked) [Example 21] | < 100 nM |  |
| < 100 nM | O=C1CCC(N2C(=O)c3cccc(NCc4cccc(C(=O)NC5CCC(c6n[nH]c7ccccc67)CC5)c4)c3C2=O)C(=O)N1 (centres unmarked) [Example 14] | < 100 nM |  |
| < 100 nM | O=C1CCC(N2C(=O)c3cccc(NCc4cccc(C(=O)NC5CCC(c6nsc7ccccc67)CC5)c4)c3C2=O)C(=O)N1 (single isomer, unassigned) [Example 53] |  | < 100 nM |
| < 100 nM | Cn1c2cnccc2nc1[C@H]1CC[C@H](C(=O)Nc2cccc(CNc3cccc4c3C(=O)N(C3CCC(=O)NC3=O)C4=O)c2)CC1 (some centres unmarked) [Example 37] | < 100 nM |  |
| < 100 nM | COC1CCCC(NC(=O)c2cccc(CNc3cccc4c3C(=O)N(C3CCC(=O)NC3=O)C4=O)c2)C1 (centres unmarked) [Example 2] | < 100 nM |  |
| < 100 nM | Cn1c2ccncc2nc1[C@H]1CC[C@H](C(=O)Nc2cccc(CNc3cccc4c3C(=O)N(C3CCC(=O)NC3=O)C4=O)c2)CC1 (some centres unmarked) [Example 36] | < 100 nM |  |
| < 100 nM | O=C1CCC(N2C(=O)c3cccc(NCc4cccc(C(=O)NC5CCC(c6nc7c(cnc8[nH]cc(C9CCOCC9)c87)[nH]6)CC5)c4)c3C2=O)C(=O)N1 (centres unmarked) [Example 115] | < 100 nM |  |
| < 100 nM | Cn1c(C2CCC(NC(=O)c3cc(COc4cccc5c4C(=O)N(C4CCC(=O)NC4=O)C5=O)ccn3)CC2)nc2ccncc21 (centres unmarked) [Example 48] | < 100 nM |  |
| < 100 nM | O=C1CCC(N2C(=O)c3cccc(NCc4cccc(C(=O)NC5CCC(c6coc7ccccc67)CC5)c4)c3C2=O)C(=O)N1 (centres unmarked) [Example 13] | < 100 nM |  |
| < 100 nM | O=C1CCC(N2C(=O)c3cccc(NCc4cccc(NC(=O)[C@H]5CC[C@H](c6nc7cccnc7s6)CC5)n4)c3C2=O)C(=O)N1 (some centres unmarked) [Example 62] | < 100 nM |  |
| < 100 nM | O=C1CCC(N2C(=O)c3cccc(NCc4ccc(C(=O)NC5CCC(c6nc7c(cnc8[nH]cc(C9CCOCC9)c87)[nH]6)CC5)cc4)c3C2=O)C(=O)N1 (centres unmarked) [Example 116] | < 100 nM |  |
| < 100 nM | Cn1c2cnccc2nc1[C@H]1CC[C@H](NC(=O)c2cccc(CNc3cccc4c3C(=O)N(C3CCC(=O)NC3=O)C4=O)c2)CC1 (some centres unmarked) [Example 34] | < 100 nM |  |
| < 100 nM | O=C1CCC(N2C(=O)c3cccc(NCCCCC(=O)NC4CCC(c5nc6ccccc6[nH]5)CC4)c3C2=O)C(=O)N1 (centres unmarked) [Example 5] | < 100 nM |  |
| < 100 nM | Cn1c2cccnc2nc1[C@H]1CC[C@H](NC(=O)c2cc(CNc3cccc4c3C(=O)N(C3CCC(=O)NC3=O)C4=O)ccn2)CC1 (some centres unmarked) [Example 42] | < 100 nM |  |
| < 100 nM | O=C1CCC(N2C(=O)c3cccc(NCc4cccc(C(=O)NC5CCC(c6nsc7ccccc67)CC5)c4)c3C2=O)C(=O)N1 (single isomer, unassigned) [Example 52] | < 100 nM |  |
| < 100 nM | Cn1c(C2CCC(NC(=O)c3cc(CNc4cccc5c4C(=O)N(C4CCC(=O)NC4=O)C5=O)ccn3)CC2)nc2ccccc21 (centres unmarked) [Example 35] | < 100 nM |  |
| < 100 nM | O=C1CCC(N2C(=O)c3cccc(NCc4cccc(C(=O)NC5CCC(c6csc7cncnc67)CC5)c4)c3C2=O)C(=O)N1 (centres unmarked) [Example 60] | < 100 nM |  |
| < 100 nM | O=C1CCC(N2C(=O)c3cccc(NCc4cccc(C(=O)NC5CCC(c6cc7cnccc7s6)CC5)c4)c3C2=O)C(=O)N1 (centres unmarked) [Example 51] | < 100 nM |  |
| < 100 nM | COc1ccc2c(c1)nc(C1CCC(NC(=O)c3cccc(CNc4cccc5c4C(=O)N(C4CCC(=O)NC4=O)C5=O)c3)CC1)n2C (centres unmarked) [Example 85] | < 100 nM |  |
| < 100 nM | Cn1c(C2CCC(NC(=O)c3cc(CNc4cccc5c4C(=O)N(C4CCC(=O)NC4=O)C5=O)ccn3)CC2)nc2ccncc21 (centres unmarked) [Example 25] |  | < 100 nM |
